Laboratory results published in patent publication US20120088753A1, “PYRROLOPYRIMIDINES AND USED AS KINASE INHIBITORS” (MEDICAL RESEARCH COUNCIL TECHNOLOGY, priority 2009, published 2012).

Molecular target: T1, TBK1 (Homo sapiens, UniProt Q9UHD2)
T1 construct: All protein kinases were of human origin and encoded full length proteins, unless indicated otherwise; His6; made in house; host or cells: insect Sf21 cells
T1 sequence (Q9UHD2 1-729): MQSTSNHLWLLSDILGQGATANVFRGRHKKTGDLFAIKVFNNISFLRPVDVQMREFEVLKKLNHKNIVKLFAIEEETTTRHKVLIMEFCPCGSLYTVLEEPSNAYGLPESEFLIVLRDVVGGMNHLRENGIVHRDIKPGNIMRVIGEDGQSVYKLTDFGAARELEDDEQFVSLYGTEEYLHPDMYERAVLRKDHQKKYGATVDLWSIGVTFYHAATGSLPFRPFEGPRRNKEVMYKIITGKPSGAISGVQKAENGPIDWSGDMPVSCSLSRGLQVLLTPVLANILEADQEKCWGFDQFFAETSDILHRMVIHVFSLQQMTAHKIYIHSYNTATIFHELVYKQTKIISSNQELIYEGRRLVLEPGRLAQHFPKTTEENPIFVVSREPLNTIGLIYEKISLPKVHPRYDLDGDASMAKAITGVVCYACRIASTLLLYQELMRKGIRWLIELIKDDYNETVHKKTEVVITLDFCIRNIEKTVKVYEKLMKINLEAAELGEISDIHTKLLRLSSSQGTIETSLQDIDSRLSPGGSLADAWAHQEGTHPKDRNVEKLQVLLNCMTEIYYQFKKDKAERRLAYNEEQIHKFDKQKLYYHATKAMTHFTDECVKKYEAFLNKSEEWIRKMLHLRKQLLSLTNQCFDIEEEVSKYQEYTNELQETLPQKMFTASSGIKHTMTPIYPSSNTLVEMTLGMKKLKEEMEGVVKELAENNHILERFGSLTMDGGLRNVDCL
Test: TBK1 protein kinase assay ([γ-33P]ATP filter-plate, IC50 from 10 concentrations)
Format: biochemical
Details: 50 μM ATP, peptide substrate 300 μM, 30 min, 21° C.; read-out: Potency score (TBK1 IC50)
Source text: All protein kinases were of human origin and encoded full length proteins, unless indicated otherwise. They were either expressed as glutathione S-transferase (GST) fusion proteins in Escherichia Coli or as hexahistidine (His6)-tagged proteins in insect Sf21 cells. GST fusion proteins were purified by affinity chromatography on glutathione-Sepharose, and His6-tagged proteins on nickel/nitriloacetate-agarose. The procedures for expressing some of the protein kinases used herein have been detailed previously.^8,9 The following sections outline the DNA vectors synthesised and the procedures used to express and purifying protein kinases that have not been reported previously.
The following kinases were expressed in Sf21 cells: Aurora B and Aurora C, extra-cellular signal-regulated kinase 8 (ERK8), microtubule affinity regulating kinase 3 (MARK3), protein kinase Bα[118-480][S473D], protein kinase Bβ (PKBβ[120-481][S474D], 3-phosphoinositide-dependent protein kinase-1 [52-556] (PDK1[52-556], IKKε, TBK1,
All assays (25.5 μl) were carried out at room temperature (21° C.) and were linear with respect to time and enzyme concentration under the conditions used. Assays were performed for 30 min using Multidrop Micro reagent dispensers (Thermo Electron Corporation, Waltham, Mass. 02454, USA) in a 96-well format. The concentration of magnesium acetate in the assays was 10 mM and the [γ-33P] ATP (800 cpm/pmol) was used at 5, 20 or 50 μM as indicated, in order to be at or below the Km for ATP for each enzyme. Protein kinases assayed at 5 μM ATP were: ERK1, ERK8, PKBα, MARK3, Aurora C. Protein kinases assayed at 20 μM ATP were: JNK1, PDK1, CHK1, CHK2, CDK2 and Aurora B. Protein kinases assayed at 50 μM ATP were: MNK2, IKKepsilon and TBK1.
The assays were initiated with MgATP, stopped by addition of 5 μl of 0.5 M orthophosphoric acid and spotted on to P81 filterplates using a unifilter harvester (PerkinElmer, Boston, Mass. 02118, USA). The IC50 values of inhibitors were determined after carrying out assays at 10 different concentrations of each compound.
ERK1 and ERK8 were both assayed against myelin basic protein (MBP, 0.33 mg/ml). MARK3 was assayed against the peptide […] (300 μM), MNK2 against the eIF4E protein (0.5 mg/ml). PKBβ was assayed against the peptide GRPRTSSFAEGKK (30 μM). TBK1 were assayed against ([…]) (300 μM). The substrates used for other protein kinases were described previously.^8,9
Unless stated otherwise, enzymes were diluted in 50 mM Tris/HCl pH 7.5, 0.1 mM EGTA, 1 mg/ml BSA, 0.1% (v/v) 2-mercaptoethanol and assayed in 50 mM Tris/HCl pH 7.5, 0.1 mM EGTA, 0.1% (v/v) 2-mercaptoethanol.

Structure (SMILES)	IC50
Cn1ncc2cc(Nc3ncc4ccn(CCCNC(=O)C5CCC5)c4n3)ccc21 [Example 1, Cyclobutanecarboxylic acid {3-[2-(1-methyl-1H-indazol-5-ylamino)-pyrrolo[2,3-d]pyrimidin-7-yl]propyl}-amide]	< 100 nM
Cn1ncc2ccc(Nc3ncc4ccn(CCCNC(=O)C5CCC5)c4n3)cc21 [Example 2, Cyclobutanecarboxylic acid {3-[2-(1-methyl-1H-indazol-6-ylamino)-pyrrolo[2,3-d]pyrimidin-7-yl]-propyl}-amide]	< 100 nM
O=C(NCCCn1ccc2cnc(Nc3ccc(N4CCOCC4)cc3)nc21)C1CCC1 [Example 3, Cyclobutanecarboxylic acid {3-[2-(4-morpholin-4-yl-phenylamino)-pyrrolo[2,3-d]pyrimidin-7-yl]-propyl}-amide]	< 100 nM
CN1CCN(c2ccc(Nc3ncc4ccn(CCCNC(=O)C5CCC5)c4n3)cc2)CC1 [Example 4, Cyclobutanecarboxylic acid (3-{2-[4-(4-methyl-piperazin-1-yl)-phenylamino]-pyrrolo[2,3-d]pyrimidin-7-yl}-propyl)-amide]	< 100 nM
CN(C)Cc1ccc(Nc2ncc3ccn(CCCNC(=O)C4CCC4)c3n2)cc1 [Example 5, Cyclobutanecarboxylic acid {3-[2-(4-dimethylaminomethyl-phenylamino)-pyrrolo[2,3-d]pyrimidin-7-yl]-propyl}-amide]	< 100 nM
O=C(NCCCn1ccc2cnc(Nc3cccc(CN4CCCC4)c3)nc21)C1CCC1 [Example 6, Cyclobutanecarboxylic acid {3-[2-(3-pyrrolidin-1-ylmethyl-phenylamino)-pyrrolo[2,3-d]pyrimidin-7-yl]-propyl}-amide]	< 100 nM
O=C(NCCCn1ccc2cnc(Nc3cccc(-c4cnco4)c3)nc21)C1CCC1 [Example 7, Cyclobutanecarboxylic acid {3-[2-(3-oxazol-5-yl-phenylamino)-pyrrolo[2,3-d]pyrimidin-7-yl]-propyl}-amide]	< 100 nM
Cn1cc(Nc2ncc3ccn(CCCNC(=O)C4CCC4)c3n2)cn1 [Example 8, Cyclobutanecarboxylic acid {3-[2-(1-methyl-1H-pyrazol-4-ylamino)-pyrrolo[2,3-d]pyrimidin-7-yl]-propyl}-amide]	< 100 nM
O=C(NCCCn1ccc2cnc(Nc3cnn(CCN4CCOCC4)c3)nc21)C1CCC1 [Example 9, Cyclobutanecarboxylic acid (3-{2-[1-(2-morpholin-4-yl-ethyl)-1H-pyrazol-4-ylamino]-pyrrolo[2,3-d]pyrimidin-7-yl}-propyl)-amide]	100 to 1000 nM
O=C(NCCCn1ccc2cnc(Nc3cccc(F)c3)nc21)c1cccs1 [Example 10, Thiophene-2-carboxylic acid {3-[2-(3-fluoro-phenylamino)-pyrrolo[2,3-d]pyrimidin-7-yl]-propyl}-amide]	< 100 nM
N#Cc1cccc(Nc2ncc3ccn(CCCNC(=O)c4cccs4)c3n2)c1 [Example 11, Thiophene-2-carboxylic acid {3-[2-(3-cyano-phenylamino)-pyrrolo[2,3-d]pyrimidin-7-yl]-propyl}-amide]	100 to 1000 nM
O=C(NCCCn1ccc2cnc(Nc3cccnc3)nc21)c1cccs1 [Example 12, Thiophene-2-carboxylic acid {3-[2-(pyridin-3-ylamino)-pyrrolo[2,3-d]pyrimidin-7-yl]-propyl}-amide]	100 to 1000 nM
O=C(NCCCn1ccc2cnc(Nc3cccc(C(F)(F)F)c3)nc21)c1cccs1 [Example 13, Thiophene-2-carboxylic acid {3-[2-(3-trifluoromethyl-phenylamino)-pyrrolo[2,3-d]pyrimidin-7-yl]-propyl}-amide]	1000 to 10000 nM
O=C(NCCCn1ccc2cnc(Nc3cccc(NC(=O)N4CCCC4)c3)nc21)c1cccs1 [Example 14, Pyrrolidine-1-carboxylic acid [3-(7-{3-[(thiophene-2-carbonyl)-amino]-propyl}-7H-pyrrolo[2,3-d]pyrimidin-2-ylamino)-phenyl]-amide]	100 to 1000 nM
O=C(NCCCn1ccc2cnc(Nc3ccc(C(=O)N4CCOCC4)cc3)nc21)C1CCC1 [Example 15, Cyclobutanecarboxylic acid (3-{2-[4-(morpholine-4-carbonyl)-phenylamino]-pyrrolo[2,3-d]pyrimidin-7-yl}-propyl)-amide]	< 100 nM
O=C(NCCCn1ccc2cnc(Nc3ccc(N4CCOCC4)nc3)nc21)C1CCCC1 [Example 16, Cyclopentanecarboxylic acid {3-[2-(6-morpholin-4-yl-pyridin-3-ylamino)-pyrrolo[2,3-d]pyrimidin-7-yl]-propyl}-amide]	< 100 nM
O=C(NCCCn1ccc2cnc(Nc3ccc(N4CCOCC4)nc3)nc21)c1cnccn1 [Example 17, Pyrazine-2-carboxylic acid {3-[2-(6-morpholin-4-yl-pyridin-3-ylamino)-pyrrolo[2,3-d]pyrimidin-7-yl]-propyl}-amide]	100 to 1000 nM
O=C(CC1CC1)NCCCn1ccc2cnc(Nc3ccc(N4CCOCC4)nc3)nc21 [Example 18, 2-Cyclopropyl-N-{3-[2-(6-morpholin-4-yl-pyridin-3-ylamino)-pyrrolo[2,3-d]pyrimidin-7-yl]-propyl}-acetamide]	100 to 1000 nM
CC(C)CC(=O)NCCCn1ccc2cnc(Nc3ccc(N4CCOCC4)nc3)nc21 [Example 19, 3-Methyl-N-{3-[2-(6-morpholin-4-yl-pyridin-3-ylamino)-pyrrolo[2,3-d]pyrimidin-7-yl]-propyl}-butyramide]	100 to 1000 nM
O=C(NCCCn1ccc2cnc(Nc3ccc(N4CCOCC4)nc3)nc21)C1CCOC1 (stereo not shown) [Example 20, Tetrahydro-furan-3-carboxylic acid {3-[2-(6-morpholin-4-yl-pyridin-3-ylamino)-pyrrolo[2,3-d]pyrimidin-7-yl]-propyl}-amide]	< 100 nM
O=C(NCCCn1ccc2cnc(Nc3ccc(N4CCOCC4)nc3)nc21)c1cncs1 [Example 21, Thiazole-5-carboxylic acid {3-[2-(6-morpholin-4-yl-pyridin-3-ylamino)-pyrrolo[2,3-d]pyrimidin-7-yl]-propyl}-amide]	100 to 1000 nM
O=C(NCCCn1ccc2cnc(Nc3ccc(N4CCOCC4)nc3)nc21)C1CC1 [Example 22, Cyclopropanecarboxylic acid {3-[2-(6-morpholin-4-yl-pyridin-3-ylamino)-pyrrolo[2,3-d]pyrimidin-7-yl]-propyl}-amide]	100 to 1000 nM
CC(C)C(=O)NCCCn1ccc2cnc(Nc3ccc(N4CCOCC4)nc3)nc21 [Example 23, N-{3-[2-(6-Morpholin-4-yl-pyridin-3-ylamino)-pyrrolo[2,3-d]pyrimidin-7-yl]-propyl}-isobutyramide]	1000 to 10000 nM
O=C(NCCCn1ccc2cnc(Nc3ccc(N4CCOCC4)nc3)nc21)C1CCCCC1 [Example 24, Cyclohexanecarboxylic acid {3-[2-(6-morpholin-4-yl-pyridin-3-ylamino)-pyrrolo[2,3-d]pyrimidin-7-yl]-propyl}-amide]	100 to 1000 nM
O=C(CC1CCCC1)NCCCn1ccc2cnc(Nc3ccc(N4CCOCC4)nc3)nc21 [Example 25, 2-Cyclopentyl-N-{3-[2-(6-morpholin-4-yl-pyridin-3-ylamino)-pyrrolo[2,3-d]pyrimidin-7-yl]-propyl}-acetamide]	100 to 1000 nM
